For orientation: IC50 means the concentration that inhibits the measured activity by half.

Among the data in US12338256B2, “Aza-tetracyclic oxazepine compounds and uses thereof” (Genentech, Inc., priority 2022, dated 2025) are IC50 values, retold here.

What all share (type): cell-based
The test system of experiment [1] is AsPC-1 (homozygous mutant KRAS G12D human pancreatic cell line). The experiment in a line: KRAS 3D-Cell Proliferation Assay, AsPC-1 (Example 503). The settings on record: Homo sapiens, ASPC1, 168 h, AsPC-1 3D culture, 7 days, CellTiter-Glo 3D; read-out: Prolif AsPC-1 3D ATP IC50. The gist of the method: (§1)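 IC50s come from a 4-parameter Hill fit of luminescence (CellTiter-Glo 3D) normalized between DMSO (0%) and 1 μM staurosporine (100%). Cells in low-attachment 3D culture, RPMI-1640 with 10% FBS, received serial compound dilutions (0.3% DMSO) after overnight and were incubated 7 days at 37 °C.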

Experiment [2] deals with HPAC (homozygous mutant KRAS G12D human pancreatic cell line). The experiment in a line: KRAS 3D-Cell Proliferation Assay, HPAC (Example 503). Particulars: Homo sapiens, HPAC, 168 h, HPAC 3D culture, 7 days, CellTiter-Glo 3D; read-out: Prolif HPAC 3D ATP IC50. The gist of the method:
as §1
In general terms: Cellular ATP, detected with luciferase, serves as a proxy for viable cell number.

Experiment [3] has as its system PC-9 (KRAS wild type human lung adenocarcinoma cell line). The experiment in a line: KRAS 3D-Cell Proliferation Assay, PC-9 (Example 503). The settings on record: 168 h, PC-9 3D culture, 7 days, CellTiter-Glo 3D, read-out: Prolif PC9 3D ATP IC50. How it is done:
Example 503: KRAS 3D-Cell Proliferation Assays. Cellular potencies of compounds are assessed by evaluating inhibition of proliferation in 3D cultures of homozygous mutant KRAS G12D human pancreatic cell lines (AsPC-1 and HPAC) as compared to a KRAS wild type human lung adenocarcinoma cell line (PC-9 and/or H1975). Cells are seeded into 384-well black round-bottom, ultra-low attachment assay plates in 50 uL cell growth medium (RPMI-1640 with 10% fetal bovine serum and 2 mM L-glutamine). After overnight incubation at 37° C. and 5% CO2, compounds solubilized in DMSO are added as dilution series to the wells in a total volume of 150 nL (0.3% DMSO final). The cells are incubated for 7 days at 37° C. and 5% CO2. Cell proliferation is quantitated by addition of 40 uL/well of CellTiter-GloÒ 3D (Promega), and the well contents are mixed 20× at high speed using liquid handling automation workstation (Bravo with 384-well head) and centrifuged at 1500 rpm for 2 minutes to eliminate bubbles. This reagent in combination with mechanical disruption releases the cellular ATP to promote activity in a luciferase-based enzyme/substrate chemiluminescent detection system. After a 30-minute incubation under ambient conditions with shaking and an additional 10 minutes without shaking, the luminescence is read on a plate reader (e.g., EnVision [PerkinElmer]). The results are normalized to percent inhibition based on the following control samples: DMSO (0% inhibition) and 1 μM staurosporine (100% inhibition). The normalized luminescence results are plotted against compound concentration, and the data are fit to a 4-parameter Hill equation to determine the IC50 values.

Experiment [4] has as its system H1975 (KRAS wild type human lung adenocarcinoma cell line). The experiment in a line: KRAS 3D-Cell Proliferation Assay, H1975 (Example 503). The settings on record: Homo sapiens, NCI-H1975, 168 h, H1975 3D culture, 7 days, CellTiter-Glo 3D; read-out: Prolif H1975 3D ATP IC50. The gist of the method:
as §1

Regarding `Cc1cc(N)c(F)c(-c2nc3c4c(nc(OCC56CCN5CC(F)(F)C6)nc4c2F)N2C[C@H]4CC[C@H](N4)[C@H]2[C@H](C)O3)c1C(F)(F)F` (mixture of isomers) [Compound 33, 3-((5S,5aS,6S,9R)-12-((3,3-Difluoro-1-azabicyclo[3.2.0]heptan-5-yl)methoxy)-1-fluoro-5-methyl-5a,6,7,8,9,10-hexahydro-5H-4-oxa-3,10a,11,13,14-pentaaza-6,9-methanonaphtho[1,8-ab]heptalen-2-yl)-2-fluoro-5-methyl-4-(trifluoromethyl)aniline], the half-maximal inhibitory concentration (IC50) worked out at 3.72 nM in experiment [1], 1.29 nM in experiment [2], 3920 nM in experiment [3] and 1850 nM in experiment [4].

For `C#Cc1cccc2cc(O)cc(-c3nc4c5c(nc(OCC67CCN6CC(F)(F)C7)nc5c3F)N3C[C@H]5CC[C@H](N5)[C@H]3[C@H](C)O4)c12` (single isomer, unassigned) [Compound 20], the IC50 in experiment [1] was found to be 28.7 nM; in experiment [2], 7.78 nM; in experiment [3], 8680 nM; in experiment [4], 2220 nM.

Regarding `C#Cc1cccc2cc(O)cc(-c3nc4c5c(nc(OC[C@@]67CCCN6C[C@H](F)C7)nc5c3F)N3C[C@H]5CC[C@H](N5)[C@H]3CO4)c12` [Compound 3, 5-ethynyl-4-((5aS,6S,9R)-1-fluoro-12-(((2R,7aS)-2-fluorotetrahydro-1H-pyrrolizin-7a(5H)-yl)methoxy)-5a,6,7,8,9,10-hexahydro-5H-4-oxa-3,10a,11,13,14-pentaaza-6,9-methanonaphtho[1,8-ab]heptalen-2-yl)naphthalen-2-ol], the IC50 is 6.72 nM in experiment [1], 11.2 nM in experiment [2], at least 20000 nM in experiment [3] and 202 nM in experiment [4].

For `CCc1cccc2cc(O)cc(-c3nc4c5c(nc(OC[C@@]67CCCN6C[C@H](F)C7)nc5c3F)N3C[C@H]5CC[C@H](N5)[C@H]3CO4)c12` [Compound 5, 5-ethyl-4-((5aS,6S,9R)-1-fluoro-12-(((2R,7aS)-2-fluorotetrahydro-1H-pyrrolizin-7a(5H)-yl)methoxy)-5a,6,7,8,9,10-hexahydro-5H-4-oxa-3,10a,11,13,14-pentaaza-6,9-methanonaphtho[1,8-ab]heptalen-2-yl)naphthalen-2-ol], the IC50 in experiment [1] stood at 6.28 nM; in experiment [2], 7.06 nM; in experiment [3], 9050 nM; in experiment [4], 1400 nM.

In the case of `Cc1c(F)c(N)cc(-c2nc3c4c(nc(OC[C@@]56CCCN5C[C@H](F)C6)nc4c2F)N2C[C@H]4CC[C@H](N4)[C@H]2[C@H](C)O3)c1C(F)(F)F` [Compound 6, 2-Fluoro-5-((5S,5aS,6S,9R)-1-fluoro-12-(((2R,7aS)-2-fluorotetrahydro-1H-pyrrolizin-7a(5H)-yl)methoxy)-5-methyl-5a,6,7,8,9,10-hexahydro-5H-4-oxa-3,10a,11,13,14-pentaaza-6,9-methanonaphtho[1,8-ab]heptalen-2-yl)-3-methyl-4-(trifluoromethyl)aniline], the IC50 in experiment [1] turned out to be 0.561 nM; in experiment [2] it was 0.247 nM; in experiment [3], 4210 nM; in experiment [4], 692 nM.

With `C#Cc1c(F)ccc2cc(O)cc(-c3nc4c5c(nc(OC[C@@]67CCCN6C[C@H](F)C7)nc5c3F)N3C[C@H]5CC[C@H](N5)[C@H]3[C@H](C)O4)c12` [Compound 7, 5-Ethynyl-6-fluoro-4-((5S,5aS,6S,9R)-1-fluoro-12-(((2R,7aS)-2-fluorotetrahydro-1H-pyrrolizin-7a(5H)-yl)methoxy)-5-methyl-5a,6,7,8,9,10-hexahydro-5H-4-oxa-3,10a,11,13,14-pentaaza-6,9-methanonaphtho[1,8-ab]heptalen-2-yl)naphthalen-2-ol], the half-inhibitory concentration (IC50) was 1.92 nM in experiment [1], 1.36 nM in experiment [2], 10200 nM in experiment [3] and 130 nM in experiment [4].

`C[C@@H]1Oc2nc(-c3cccc4cccc(Cl)c34)c(F)c3nc(OC[C@@]45CCCN4C[C@H](F)C5)nc(c23)N2C[C@H]3CC[C@H](N3)[C@@H]12` [Compound 8, (5S,5aS,6S,9R)-2-(8-chloronaphthalen-1-yl)-1-fluoro-12-(((2R,7aS)-2-fluorotetrahydro-1H-pyrrolizin-7a(5H)-yl)methoxy)-5-methyl-5a,6,7,8,9,10-hexahydro-5H-4-oxa-3,10a,11,13,14-pentaaza-6,9-methanonaphtho[1,8-ab]heptalene]: the IC50 in experiment [1] is 72 nM; in experiment [2], 87.3 nM; in experiment [3], 3920 nM; in experiment [4], 4310 nM.

In the case of `CCc1cccc2cc(O)cc(-c3nc4c5c(nc(OC[C@@]67CCCN6C[C@H](F)C7)nc5c3F)N3C[C@H]5CC[C@H](N5)[C@H]3[C@H](C)O4)c12` [Compound 10, 5-ethyl-4-((5S,5aS,6S,9R)-1-fluoro-12-(((2R,7aS)-2-fluorotetrahydro-1H-pyrrolizin-7a(5H)-yl)methoxy)-5-methyl-5a,6,7,8,9,10-hexahydro-5H-4-oxa-3,10a,11,13,14-pentaaza-6,9-methanonaphtho[1,8-ab]heptalen-2-yl)naphthalen-2-ol], the IC50 in experiment [1] was found to be 4.93 nM; in experiment [2], 5.96 nM; in experiment [3], 6670 nM; in experiment [4], 2270 nM.

Take `C#Cc1cccc2cc(O)cc(-c3nc4c5c(nc(OC[C@@]67CCCN6C[C@H](F)C7)nc5c3F)N3C[C@H]5CC[C@H](N5)[C@H]3[C@H](C)O4)c12` [Compound 11, 5-ethynyl-4-((5S,5aS,6S,9R)-1-fluoro-12-(((2R,7aS)-2-fluorotetrahydro-1H-pyrrolizin-7a(5H)-yl)methoxy)-5-methyl-5a,6,7,8,9,10-hexahydro-5H-4-oxa-3,10a,11,13,14-pentaaza-6,9-methanonaphtho[1,8-ab]heptalen-2-yl)naphthalen-2-ol]: the half-inhibitory concentration (IC50) in experiment [1] is 2.3 nM; in experiment [2], 2.41 nM; in experiment [3], at least 20000 nM; in experiment [4] it was 169 nM.

With `C[C@@H]1Oc2nc(-c3cc(N)c(F)cc3C(F)(F)F)c(F)c3nc(OC[C@@]45CCCN4C[C@H](F)C5)nc(c23)N2C[C@H]3CC[C@H](N3)[C@@H]12` [Compound 14, 2-fluoro-5-((5S,5aS,6S,9R)-1-fluoro-12-(((2R,7aS)-2-fluorotetrahydro-1H-pyrrolizin-7a(5H)-yl)methoxy)-5-methyl-5a,6,7,8,9,10-hexahydro-5H-4-oxa-3,10a,11,13,14-pentaaza-6,9-methanonaphtho[1,8-ab]heptalen-2-yl)-4-(trifluoromethyl)aniline], the 50% inhibitory concentration (IC50) in experiment [1] turned out to be 5.62 nM; in experiment [2] it was 11.3 nM; in experiment [3], 6210 nM; in experiment [4], 2510 nM.

For `Cc1cc(N)cc(-c2nc3c4c(nc(OC[C@@]56CCCN5C[C@H](F)C6)nc4c2F)N2C[C@H]4CC[C@H](N4)[C@H]2[C@H](C)O3)c1C(F)(F)F` [Compound 16, 3-((5S,5aS,6S,9R)-1-fluoro-12-(((2R,7aS)-2-fluorotetrahydro-1H-pyrrolizin-7a(5H)-yl)methoxy)-5-methyl-5a,6,7,8,9,10-hexahydro-5H-4-oxa-3,10a,11,13,14-pentaaza-6,9-methanonaphtho[1,8-ab]heptalen-2-yl)-5-methyl-4-(trifluoromethyl)aniline], the IC50 is 1.3 nM in experiment [1], 0.7 nM in experiment [2], at least 20000 nM in experiment [3] and 255 nM in experiment [4].

As to `C[C@@H]1Oc2nc(-c3cc(N)cc(F)c3C(F)(F)F)c(F)c3nc(OC[C@@]45CCCN4C[C@H](F)C5)nc(c23)N2C[C@H]3CC[C@H](N3)[C@@H]12` [Compound 17, 3-fluoro-5-((5S,5aS,6S,9R)-1-fluoro-12-(((2R,7aS)-2-fluorotetrahydro-1H-pyrrolizin-7a(5H)-yl)methoxy)-5-methyl-5a,6,7,8,9,10-hexahydro-5H-4-oxa-3,10a,11,13,14-pentaaza-6,9-methanonaphtho[1,8-ab]heptalen-2-yl)-4-(trifluoromethyl)aniline], the IC50 in experiment [1] was determined as 1.71 nM; in experiment [2], 0.62 nM; in experiment [3] it was 7910 nM; in experiment [4] it was 1340 nM.
